{
  "source": "patent US6355799B1",
  "about": "“Substituted benzene compounds, process for their preparation, and herbicidal and defoliant compositions containing them” (ISK Americas Incorporated, priority 1997, dated 2002)",
  "assay_type_in_all_cases": "in vivo",
  "key": {"[1]": {"system": "upland rice (Oryza sp., var. Tebonnet, RICE)", "assay": "Post-emerge test, crop safety", "settings": "post-emerge, 14 days after application, rating scale 0-100", "procedure,_shortened": "(§1)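 Herbicidal damage is scored 0 (none) to 100 (complete plant death) two weeks after a simulated field spray. Rates span 15–1000 g ai/ha, delivered in acetone at 187 l/ha. For post-emergence treatments, plants have 2–3 leaves and the spray carries 0.25% v/v non-ionic surfactant.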"}, "[2]": {"system": "field corn (Zea mays L., var. Dekalb 535, CORN)", "assay": "Post-emerge test, crop safety", "settings": "post-emerge, 14 days after application, rating scale 0-100", "procedure,_shortened": "as §1"}, "[3]": {"system": "barnyardgrass (Echinochloa crus-galli, ECHCG)", "assay": "Post-emerge test, greenhouse herbicide activity screening", "settings": "post-emerge, 14 days after application, rating scale 0-100", "procedure,_shortened": "(§2)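 Rating: 0–100 visual injury, 14 DAA. Application: acetone, 187 l/ha, 15–1000 g ai/ha, flat-fan track sprayer with nozzle 40–45 cm above soil or canopy. Post-emerge runs used 0.25% v/v surfactant on 2–3 leaf plants.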"}, "[4]": {"system": "sicklepod (Cassia obtusifolia, CASOB)", "assay": "Post-emerge test, greenhouse herbicide activity screening", "settings": "post-emerge, 14 days after application, rating scale 0-100", "procedure,_shortened": "as §2"}, "[5]": {"system": "redroot pigweed (Amaranthus retroflexus, AMARE)", "assay": "Post-emerge test, greenhouse herbicide activity screening", "settings": "post-emerge, 14 days after application, rating scale 0-100", "procedure,_shortened": "as §2"}, "[6]": {"system": "common ragweed (Ambrosia artemisizfolia L., AMBEL)", "assay": "Post-emerge test, greenhouse herbicide activity screening", "settings": "post-emerge, 14 days after application, rating scale 0-100", "procedure,_shortened": "as §2"}, "[7]": {"system": "lambsquarters (Chenopodium album, CHEAL)", "assay": "Post-emerge test, greenhouse herbicide activity screening", "settings": "post-emerge, 14 days after application, rating scale 0-100", "procedure,_shortened": "as §2"}, "[8]": {"system": "large crabgrass (Digitaria sanguinalis, DIGSA)", "assay": "Post-emerge test, greenhouse herbicide activity screening", "settings": "post-emerge, 14 days after application, rating scale 0-100", "procedure,_shortened": "as §2"}, "[9]": {"system": "ivyleaf morningglory (Ipomoea hederacea, IPOHE)", "assay": "Post-emerge test, greenhouse herbicide activity screening", "settings": "post-emerge, 14 days after application, rating scale 0-100", "procedure,_shortened": "as §2"}, "[10]": {"system": "green foxtail (Setaria viridis, SETVI)", "assay": "Post-emerge test, greenhouse herbicide activity screening", "settings": "post-emerge, 14 days after application, rating scale 0-100", "procedure,_shortened": "as §2"}, "[11]": {"system": "johnsongrass (Sorghum halepense, SORHA)", "assay": "Post-emerge test, greenhouse herbicide activity screening", "settings": "post-emerge, 14 days after application, rating scale 0-100", "procedure,_shortened": "as §2"}, "[12]": {"system": "velvetleaf (Abutilon theophrasti, ABUTH)", "assay": "Post-emerge test, greenhouse herbicide activity screening", "settings": "post-emerge, 14 days after application, rating scale 0-100", "procedure,_shortened": "as §2"}, "[13]": {"system": "barnyardgrass (Echinochloa crus-galli, ECHCG)", "assay": "Pre-emerge test, greenhouse herbicide activity screening", "settings": "rated 14 days after application, 0 = no damage, 100 = complete death", "procedure,_shortened": "as §1"}, "[14]": {"system": "sicklepod (Cassia obtusifolia, CASOB)", "assay": "Pre-emerge test, greenhouse herbicide activity screening", "settings": "rated 14 days after application, 0 = no damage, 100 = complete death", "procedure,_shortened": "as §1"}, "[15]": {"system": "common ragweed (Ambrosia artemisizfolia L., AMBEL)", "assay": "Pre-emerge test, greenhouse herbicide activity screening", "settings": "rated 14 days after application, 0 = no damage, 100 = complete death", "procedure,_shortened": "as §1"}, "[16]": {"system": "lambsquarters (Chenopodium album, CHEAL)", "assay": "Pre-emerge test, greenhouse herbicide activity screening", "settings": "rated 14 days after application, 0 = no damage, 100 = complete death", "procedure,_shortened": "as §1"}, "[17]": {"system": "large crabgrass (Digitaria sanguinalis, DIGSA)", "assay": "Pre-emerge test, greenhouse herbicide activity screening", "settings": "rated 14 days after application, 0 = no damage, 100 = complete death", "procedure,_shortened": "as §1"}, "[18]": {"system": "ivyleaf morningglory (Ipomoea hederacea, IPOHE)", "assay": "Pre-emerge test, greenhouse herbicide activity screening", "settings": "rated 14 days after application, 0 = no damage, 100 = complete death", "procedure,_shortened": "as §1"}, "[19]": {"system": "green foxtail (Setaria viridis, SETVI)", "assay": "Pre-emerge test, greenhouse herbicide activity screening", "settings": "rated 14 days after application, 0 = no damage, 100 = complete death", "procedure,_shortened": "as §1"}, "[20]": {"system": "johnsongrass (Sorghum halepense, SORHA)", "assay": "Pre-emerge test, greenhouse herbicide activity screening", "settings": "rated 14 days after application, 0 = no damage, 100 = complete death", "procedure,_shortened": "as §1"}, "[21]": {"system": "velvetleaf (Abutilon theophrasti, ABUTH)", "assay": "Pre-emerge test, greenhouse herbicide activity screening", "settings": "rated 14 days after application, 0 = no damage, 100 = complete death", "procedure,_shortened": "as §1"}, "[22]": {"system": "redroot pigweed (Amaranthus retroflexus, AMARE)", "assay": "Pre-emerge test, greenhouse herbicide activity screening", "settings": "rated 14 days after application, 0 = no damage, 100 = complete death", "procedure,_shortened": "as §2"}, "[23]": {"system": "upland rice (Oryza sp., var. Tebonnet, RICE)", "assay": "Pre-emerge test, crop safety", "settings": "rated 14 days after application, 0 = no damage, 100 = complete death", "procedure,_shortened": "(§3)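 Compounds in acetone were track-sprayed at 15-1000 g ai/ha (187 l/ha) on sandy loam pots: pre-emerge one day after seeding, post-emerge at 2-3 leaf stage with 0.25% v/v non-ionic surfactant. Phytotoxicity was rated 14 days later on a 0 (no damage) to 100 (complete death) scale.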"}, "[24]": {"system": "field corn (Zea mays L., var. Dekalb 535, CORN)", "assay": "Pre-emerge test, crop safety", "settings": "rated 14 days after application, 0 = no damage, 100 = complete death", "procedure,_shortened": "as §3"}},
  "data": [
    {"smiles": "COc1c(Cl)cc(F)c(-n2c(=O)cc(C(F)(F)F)n(C)c2=O)c1NC(=O)c1cccc(Cl)c1", "note": "[2-54]", "values": [
      {"measurement": "phytotoxicity rating RICE", "setting": "[1]; 63 g ai/ha", "value": 90},
      {"measurement": "phytotoxicity rating RICE", "setting": "[1]; 250 g ai/ha", "value": 95},
      {"measurement": "phytotoxicity rating CORN", "setting": "[2]; 63 g ai/ha", "value": 80},
      {"measurement": "phytotoxicity rating CORN", "setting": "[2]; 250 g ai/ha", "value": 80},
      {"measurement": "phytotoxicity rating ECHCG", "setting": "[3]; 63 g ai/ha", "value": 20},
      {"measurement": "phytotoxicity rating ECHCG", "setting": "[3]; 250 g ai/ha", "value": 90},
      {"measurement": "phytotoxicity rating CASOB", "setting": "[4]; 63 g ai/ha", "value": 90},
      {"measurement": "phytotoxicity rating CASOB", "setting": "[4]; 250 g ai/ha", "value": 100},
      {"measurement": "phytotoxicity rating AMARE", "setting": "[5]; 63 g ai/ha", "value": 100},
      {"measurement": "phytotoxicity rating AMARE", "setting": "[5]; 250 g ai/ha", "value": 100},
      {"measurement": "phytotoxicity rating AMBEL", "setting": "[6]; 63 g ai/ha", "value": 90},
      {"measurement": "phytotoxicity rating AMBEL", "setting": "[6]; 250 g ai/ha", "value": 100},
      {"measurement": "phytotoxicity rating CHEAL", "setting": "[7]; 63 g ai/ha", "value": 100},
      {"measurement": "phytotoxicity rating CHEAL", "setting": "[7]; 250 g ai/ha", "value": 100},
      {"measurement": "phytotoxicity rating DIGSA", "setting": "[8]; 63 g ai/ha", "value": 10},
      {"measurement": "phytotoxicity rating DIGSA", "setting": "[8]; 250 g ai/ha", "value": 20},
      {"measurement": "phytotoxicity rating IPOHE", "setting": "[9]; 63 g ai/ha", "value": 100},
      {"measurement": "phytotoxicity rating IPOHE", "setting": "[9]; 250 g ai/ha", "value": 100},
      {"measurement": "phytotoxicity rating SETVI", "setting": "[10]; 63 g ai/ha", "value": 10},
      {"measurement": "phytotoxicity rating SETVI", "setting": "[10]; 250 g ai/ha", "value": 50},
      {"measurement": "phytotoxicity rating SORHA", "setting": "[11]; 63 g ai/ha", "value": 50},
      {"measurement": "phytotoxicity rating SORHA", "setting": "[11]; 250 g ai/ha", "value": 80},
      {"measurement": "phytotoxicity rating ABUTH", "setting": "[12]; 63 g ai/ha", "value": 100},
      {"measurement": "phytotoxicity rating ABUTH", "setting": "[12]; 250 g ai/ha", "value": 100},
      {"measurement": "Pre-emerge Herbicidal Activity, phytotoxicity rating (0-100), ECHCG", "setting": "[13]; 63 g ai/ha", "value": 90},
      {"measurement": "Pre-emerge Herbicidal Activity, phytotoxicity rating (0-100), ECHCG", "setting": "[13]; 250 g ai/ha", "value": 100},
      {"measurement": "Pre-emerge Herbicidal Activity, phytotoxicity rating (0-100), CASOB", "setting": "[14]; 63 g ai/ha", "value": 100},
      {"measurement": "Pre-emerge Herbicidal Activity, phytotoxicity rating (0-100), CASOB", "setting": "[14]; 250 g ai/ha", "value": 100},
      {"measurement": "Pre-emerge Herbicidal Activity, phytotoxicity rating (0-100), AMBEL", "setting": "[15]; 63 g ai/ha", "value": 100},
      {"measurement": "Pre-emerge Herbicidal Activity, phytotoxicity rating (0-100), AMBEL", "setting": "[15]; 250 g ai/ha", "value": 100},
      {"measurement": "Pre-emerge Herbicidal Activity, phytotoxicity rating (0-100), CHEAL", "setting": "[16]; 63 g ai/ha", "value": 100},
      {"measurement": "Pre-emerge Herbicidal Activity, phytotoxicity rating (0-100), CHEAL", "setting": "[16]; 250 g ai/ha", "value": 100},
      {"measurement": "Pre-emerge Herbicidal Activity, phytotoxicity rating (0-100), DIGSA", "setting": "[17]; 63 g ai/ha", "value": 100},
      {"measurement": "Pre-emerge Herbicidal Activity, phytotoxicity rating (0-100), DIGSA", "setting": "[17]; 250 g ai/ha", "value": 100},
      {"measurement": "Pre-emerge Herbicidal Activity, phytotoxicity rating (0-100), IPOHE", "setting": "[18]; 63 g ai/ha", "value": 85},
      {"measurement": "Pre-emerge Herbicidal Activity, phytotoxicity rating (0-100), IPOHE", "setting": "[18]; 250 g ai/ha", "value": 100},
      {"measurement": "Pre-emerge Herbicidal Activity, phytotoxicity rating (0-100), SETVI", "setting": "[19]; 63 g ai/ha", "value": 100},
      {"measurement": "Pre-emerge Herbicidal Activity, phytotoxicity rating (0-100), SETVI", "setting": "[19]; 250 g ai/ha", "value": 100},
      {"measurement": "Pre-emerge Herbicidal Activity, phytotoxicity rating (0-100), SORHA", "setting": "[20]; 63 g ai/ha", "value": 90},
      {"measurement": "Pre-emerge Herbicidal Activity, phytotoxicity rating (0-100), SORHA", "setting": "[20]; 250 g ai/ha", "value": 100},
      {"measurement": "Pre-emerge Herbicidal Activity, phytotoxicity rating (0-100), ABUTH", "setting": "[21]; 63 g ai/ha", "value": 100},
      {"measurement": "Pre-emerge Herbicidal Activity, phytotoxicity rating (0-100), ABUTH", "setting": "[21]; 250 g ai/ha", "value": 100},
      {"measurement": "Pre-emerge Herbicidal Activity, phytotoxicity rating (0-100), AMARE", "setting": "[22]; 63 g ai/ha", "value": 100},
      {"measurement": "Pre-emerge Herbicidal Activity, phytotoxicity rating (0-100), AMARE", "setting": "[22]; 250 g ai/ha", "value": 100},
      {"measurement": "Pre-emerge phytotoxicity rating (0-100), crop damage, RICE", "setting": "[23]; 63 g ai/ha", "value": 70},
      {"measurement": "Pre-emerge phytotoxicity rating (0-100), crop damage, RICE", "setting": "[23]; 250 g ai/ha", "value": 90},
      {"measurement": "Pre-emerge phytotoxicity rating (0-100), crop damage, CORN", "setting": "[24]; 63 g ai/ha", "value": 90},
      {"measurement": "Pre-emerge phytotoxicity rating (0-100), crop damage, CORN", "setting": "[24]; 250 g ai/ha", "value": 98}
    ]}
  ]
}
